According to PMC11007962, “First-in-human study of GFH018, a small molecule inhibitor of transforming growth factor-β receptor I inhibitor, in patients with advanced solid tumors” (BMC Cancer, 2024):
Like-named read-outs stand apart in the source and are kept apart here.

Test system: patients with advanced solid tumors
[1] = 30 mg BID 14d-on/14d-off (N = 7)
[2] = 40 mg BID 14d-on/14d-off (N = 4)
[3] = 50 mg BID 14d-on/14d-off (N = 4)
[4] = 65 mg BID 14d-on/14d-off (N = 6)

Procedure: The study consisted of a dose-escalation part followed by an expansion part. In the dose escalation part, a 3-day pharmacokinetic (PK) lead-in period was conducted for a single dose in the first treatment cycle. Patients received GFH018 once on cycle 1 day 1 (C1D1) and underwent serial PK testing over the first 3 days. On C1D4, patients were administered the corresponding dose of GFH018 BID 14 days on/14 days off. The first cycle was defined as 31 days, including 3-day PK leading-in period with GFH018 single dosing and then 14d-on/14d-off dosing schedule. The subsequent cycles were 28 days. The starting dose of GFH018 was 5 mg, with eight planned dose levels up to 85 mg (5, 10, 20, 30, 40, 50, 65, and 85 mg). A modified 3+3 design was used to determine the maximum tolerance dose (MTD) and RDE, guided by safety/tolerability and PK data. Dose-limiting toxicities (DLTs) were evaluated during the first cycle at each dose level. The safety of 85 mg BID, 7 d-on/7 d-off, was explored after confirming the safety of 14 d-on/14 d-off. The DLTs were defined as hematological toxicities, including G4 neutropenia lasting for more than 5 days, G3 febrile neutropenia, G4 anemia, G4 thrombocytopenia, or G3 thrombocytopenia accompanied by bleeding, and ≥ G3 nonhematological toxicity (except for diarrhea, nausea, vomiting, and rash recovering ≤ G2 after supportive treatment within 3 days). The DLTs for cardiac toxicities included ≥ G2 cardiac valve abnormalities, ≥ G2 left ventricular ejection fraction (LVEF) decrease, any cardiovascular impairment shown in imaging, and abnormal highly sensitive troponin (hs-Tn) increased to ≥ twice the baseline in two consecutive tests with an interval ≥ 3 days. In the expansion part, patients were orally administered GFH018 RDE twice daily to further evaluate the safety of RDE and other dose regimens. […] The treatment cycle lasted 28 days.
All enrolled patients were monitored regularly after GFH018 administration. Safety assessments included adverse events (AEs), serious AEs (SAEs), laboratory assessments, vital signs, physical examinations, electrocardiography and echocardiography. AEs were graded according to the NCI Common Terminology Criteria for Adverse Events (NCI-CTCAE) v5.0. All AEs were followed up until they were stable or had recovered to baseline. Adverse events of special interest (AESIs) were predefined as echocardiographic abnormalities such as aggravated stenosis or regurgitation of the heart valves, clinically significant decreases in LVEF, brain natriuretic peptide (BNP) or N-terminal pro-brain natriuretic peptide (NT-proBNP) increases, and hs-Tn increases judged by investigators.
For the safety and efficacy analyses, data from patients who received GFH018 at the same dose in the dose-escalation and expansion cohorts were pooled. The demographic and baseline characteristics were summarized using descriptive methods. Safety and efficacy data were summarized for all patients who received at least one dose of GFH018. The ORR and DCR were summarized by cohort and overall. When the sample size of the analyzed group was ten or more, the Kaplan–Meier method was used to estimate the median PFS and TTP. In this study, treatment-emergent AEs (TEAEs) were defined as AEs that occurred on or after the first dosing date of GFH018 and no later than 30 days after the last dose of GFH018. The incidence and severity of AEs were descriptively summarized according to dose level. The PK parameters of GFH018 were calculated using noncompartmental analysis methods. All plasma PK data were summarized by cohort and visit day or time using descriptive statistics.

Cc1cccc(-c2nn3c(c2-c2ccc4ncnn4c2/C=C/C(N)=O)CCC3)n1 [GFH018]
TEAE: Urine protein present [1]: 0 n (%)
TEAE: White blood cell count decreased [1]: 0 n (%)
TEAE: White blood cells urine positive [1]: 0 n (%)
TRAE: ALP increased [1]: 0 n (%)
TRAE: ALT increased [1]: 2 (28.6%) n (%)
TRAE: AST increased [1]: 2 (28.6%) n (%)
TRAE: Anemia [1]: 0 n (%)
TRAE: GGT increased [1]: 0 n (%)
TRAE: LDH increased [1]: 1 (14.3%) n (%)
TRAE: Lymphocyte count decreased [1]: 1 (14.3%) n (%)
TRAE: Protein urine present [1]: 0 n (%)
TRAE: Proteinuria [1]: 3 (42.9%) n (%)
Treatment-emergent Proteinuria (grouped PTs), G1 [1]: 3 (42.9) n (%)
Treatment-emergent Proteinuria (grouped PTs), G2 [1]: 1 (14.3) n (%)
Treatment-emergent Proteinuria (grouped PTs), G3 [1]: 0 n (%)
Treatment-emergent Proteinuria (grouped PTs: proteinuria and urine protein present), any grade [1]: 4 (57.1) n (%)
At least one TEAE [2]: 4 (100%) n (%)
At least one TRAE [2]: 4 (100%) n (%)
TEAE: ALP increased [2]: 1 (25.0%) n (%)
TEAE: ALT increased [2]: 0 n (%)
TEAE: AST increased [2]: 0 n (%)
TEAE: Abdominal distention [2]: 0 n (%)
TEAE: Abdominal pain [2]: 0 n (%)
TEAE: Anemia [2]: 1 (25.0%) n (%)
TEAE: Asthenia [2]: 1 (25.0%) n (%)
TEAE: Bilirubin conjugated increased [2]: 0 n (%)
TEAE: Blood albumin decreased [2]: 0 n (%)
TEAE: Blood bilirubin increased [2]: 0 n (%)
TEAE: C-reactive protein increased [2]: 0 n (%)
TEAE: Constipation [2]: 0 n (%)
TEAE: Decreased appetite [2]: 0 n (%)
TEAE: GGT increased [2]: 0 n (%)
TEAE: Hypoalbuminemia [2]: 0 n (%)
TEAE: LDH increased [2]: 1 (25.0%) n (%)
TEAE: Lymphocyte count decreased [2]: 0 n (%)
TEAE: Platelet count decreased [2]: 1 (25.0%) n (%)
TEAE: Proteinuria [2]: 0 n (%)
TEAE: Sinus tachycardia [2]: 1 (25.0%) n (%)
TEAE: Urine protein present [2]: 0 n (%)
TEAE: White blood cell count decreased [2]: 0 n (%)
TEAE: White blood cells urine positive [2]: 0 n (%)
TRAE: ALP increased [2]: 1 (25.0%) n (%)
TRAE: ALT increased [2]: 0 n (%)
TRAE: AST increased [2]: 0 n (%)
TRAE: Anemia [2]: 0 n (%)
TRAE: GGT increased [2]: 0 n (%)
TRAE: LDH increased [2]: 1 (25.0%) n (%)
TRAE: Lymphocyte count decreased [2]: 0 n (%)
TRAE: Protein urine present [2]: 0 n (%)
TRAE: Proteinuria [2]: 0 n (%)
Treatment-emergent Proteinuria (grouped PTs), G1 [2]: 0 n (%)
Treatment-emergent Proteinuria (grouped PTs), G2 [2]: 0 n (%)
Treatment-emergent Proteinuria (grouped PTs), G3 [2]: 0 n (%)
Treatment-emergent Proteinuria (grouped PTs: proteinuria and urine protein present), any grade [2]: 0 n (%)
At least one TEAE [3]: 4 (100%) n (%)
At least one TRAE [3]: 2 (50.0%) n (%)
TEAE: ALP increased [3]: 1 (25.0%) n (%)
TEAE: ALT increased [3]: 1 (25.0%) n (%)
TEAE: AST increased [3]: 1 (25.0%) n (%)
TEAE: Abdominal distention [3]: 1 (25.0%) n (%)
TEAE: Abdominal pain [3]: 0 n (%)
TEAE: Anemia [3]: 3 (75.0%) n (%)
TEAE: Asthenia [3]: 0 n (%)
TEAE: Bilirubin conjugated increased [3]: 0 n (%)
TEAE: Blood albumin decreased [3]: 0 n (%)
TEAE: Blood bilirubin increased [3]: 0 n (%)
TEAE: C-reactive protein increased [3]: 0 n (%)
TEAE: Constipation [3]: 0 n (%)
TEAE: Decreased appetite [3]: 1 (25.0%) n (%)
TEAE: GGT increased [3]: 1 (25.0%) n (%)
TEAE: Hypoalbuminemia [3]: 0 n (%)
TEAE: LDH increased [3]: 0 n (%)
TEAE: Lymphocyte count decreased [3]: 0 n (%)
TEAE: Platelet count decreased [3]: 0 n (%)
TEAE: Proteinuria [3]: 0 n (%)
TEAE: Sinus tachycardia [3]: 1 (25.0%) n (%)
TEAE: Urine protein present [3]: 1 (25.0%) n (%)
TEAE: White blood cell count decreased [3]: 0 n (%)
TEAE: White blood cells urine positive [3]: 0 n (%)
TRAE: ALP increased [3]: 1 (25.0%) n (%)
TRAE: ALT increased [3]: 1 (25.0%) n (%)
TRAE: AST increased [3]: 1 (25.0%) n (%)
TRAE: Anemia [3]: 0 n (%)
TRAE: GGT increased [3]: 1 (25.0%) n (%)
TRAE: LDH increased [3]: 0 n (%)
TRAE: Lymphocyte count decreased [3]: 0 n (%)
TRAE: Protein urine present [3]: 1 (25.0%) n (%)
TRAE: Proteinuria [3]: 0 n (%)
Treatment-emergent Proteinuria (grouped PTs), G1 [3]: 1 (25.0) n (%)
Treatment-emergent Proteinuria (grouped PTs), G2 [3]: 0 n (%)
Treatment-emergent Proteinuria (grouped PTs), G3 [3]: 0 n (%)
Treatment-emergent Proteinuria (grouped PTs: proteinuria and urine protein present), any grade [3]: 1 (25.0) n (%)
At least one TEAE [4]: 5 (83.3%) n (%)
At least one TRAE [4]: 5 (83.3%) n (%)
TEAE: ALP increased [4]: 0 n (%)
TEAE: ALT increased [4]: 0 n (%)
TEAE: AST increased [4]: 2 (33.3%) n (%)
TEAE: Abdominal distention [4]: 0 n (%)
TEAE: Abdominal pain [4]: 1 (16.7%) n (%)
TEAE: Anemia [4]: 3 (50.0%) n (%)
TEAE: Asthenia [4]: 0 n (%)
TEAE: Bilirubin conjugated increased [4]: 0 n (%)
TEAE: Blood albumin decreased [4]: 0 n (%)
TEAE: Blood bilirubin increased [4]: 1 (16.7%) n (%)
TEAE: C-reactive protein increased [4]: 0 n (%)
TEAE: Constipation [4]: 1 (16.7%) n (%)
TEAE: Decreased appetite [4]: 1 (16.7%) n (%)
TEAE: GGT increased [4]: 1 (16.7%) n (%)
TEAE: Hypoalbuminemia [4]: 0 n (%)
TEAE: LDH increased [4]: 0 n (%)
TEAE: Lymphocyte count decreased [4]: 0 n (%)
TEAE: Platelet count decreased [4]: 1 (16.7%) n (%)
TEAE: Proteinuria [4]: 1 (16.7%) n (%)
TEAE: Sinus tachycardia [4]: 2 (33.3%) n (%)
TEAE: Urine protein present [4]: 1 (16.7%) n (%)
TEAE: White blood cell count decreased [4]: 2 (33.3%) n (%)
TEAE: White blood cells urine positive [4]: 1 (16.7%) n (%)
TRAE: ALP increased [4]: 0 n (%)
TRAE: ALT increased [4]: 0 n (%)
TRAE: AST increased [4]: 2 (33.3%) n (%)
TRAE: Anemia [4]: 2 (33.3%) n (%)
TRAE: GGT increased [4]: 0 n (%)
TRAE: LDH increased [4]: 0 n (%)
TRAE: Lymphocyte count decreased [4]: 0 n (%)
TRAE: Protein urine present [4]: 0 n (%)
TRAE: Proteinuria [4]: 1 (16.7%) n (%)
Treatment-emergent Proteinuria (grouped PTs), G1 [4]: 1 (16.7) n (%)
Treatment-emergent Proteinuria (grouped PTs), G2 [4]: 1 (16.7) n (%)
Treatment-emergent Proteinuria (grouped PTs), G3 [4]: 0 n (%)
Treatment-emergent Proteinuria (grouped PTs: proteinuria and urine protein present), any grade [4]: 2 (33.3) n (%)
safety profile of 7 d-on/7 d-off versus 14 d-on/14 d-off regimen (85 mg BID): not significantly different
At least one TEAE (85 mg BID 7d-on/7d-off (N = 6)): 5 (83.3%) n (%)
At least one TEAE (Table S3) (85 mg BID 7d-on/7d-off (N = 6)): 5 (83.3%) n (%)
At least one TRAE (85 mg BID 7d-on/7d-off (N = 6)): 3 (50.0%) n (%)
TEAE: ALP increased (85 mg BID 7d-on/7d-off (N = 6)): 1 (16.7%) n (%)
TEAE: ALT increased (85 mg BID 7d-on/7d-off (N = 6)): 0 n (%)
